Reference: US20200345725A1, “Methods and Compositions for Treating Cancer” (Omeros Corporation, priority 2019, published 2020)
“And” between values parts separate entries of the source, which are not always exact repeats. Identical values can stand only once. “Also recorded” adds a separate entry of the source. Marks after values point to notes of the source that are not given here.

B1: ADA: adenosine deaminase, an enzyme that catabolizes adenosine into inosine (protein, UniProt P00813 2-363, looked up)
Adenosine deaminase: AQTPAFDKPKVELHVHLDGSIKPETILYYGRRRGIALPANTAEGLLNVIGMDKPLTLPDFLAKFDYYMPAIAGCREAIKRIAYEFVEMKAKEGVVYVEVRYSPHLLANSKVEPIPWNQAEGDLTPDEVVALVGQGLQEGERDFGVKARSILCCMRHQPNWSPKVVELCKKYQQQTVVAIDLAGDETIPGSSLLPGHVQAYQEAVKSGIHRTVHAGEVGSAEVVKEAVDILKTERLGHGYHTLEDQALYNRLRQENMHFEICPWSSYLTGAWKPDTEHAVIRLKNDQANYSLNTDDPLIFKSTLDTDYQMTKRDMGFTEEEFKRLNINAAKSSFLPEDEKRELLDLLYKAYGMPPSASAGQNL

Key:
[1] = molecular target: GPR174 (Homo sapiens, UniProt Q9BXC1); experiment: CRE-Luc reporter Gs signaling assay with GPR174; assay type: cell-based; set-up: host or cells: HEK293 or CHO cell lines (ATCC); settings: pCRE-Luc reporter; for EC50: multiple values = separate experiments
[2] = test system: human PBMCs; experiment: Th1 cytokines in supernatants of stimulated human PBMC, GPR174 inhibitor with adenosine pathway inhibitors (Examples 15, 18-22); assay type: cell-based; settings: for IFN-γ, ratio relative to vehicle control (Veh column) / IL-2, ratio relative to vehicle control (Veh column) / TNF, ratio relative to vehicle control (Veh column): Cmpd 10 1, ZM 0.1, PBF 0.1, SCH 0.2 μM, ADA 0.75 μg/mL; for IFN-γ, ratio relative to vehicle control (MRS) / IL-2, ratio relative to vehicle control (MRS column) / TNF, ratio relative to vehicle control (MRS column): MRS-1754 1 μM added to the agent(s) of the label, label MRS = MRS alone
Method: Human PBMCs, obtained from a human volunteer donor, were dispensed at density of 1×10^6 cells/well in a 96-well flat-bottom plate and were stimulated in triplicate with 1 μg/mL anti-CD3 antibody (UCHT1) and 0.1 μg/mL anti-CD28 antibody (CD28.2) in the presence of:
Supernatants from these cells were collected at 24 hours post-stimulation and the levels of IFN-γ were determined by ELISA assay. Statistical analysis was carried out using one-way ANOVA with Tukey's post-hoc multiple comparison's correction.
Human PBMCs, obtained from a human volunteer donor (donor 1), were dispensed in X-vivo15 media (Lonza) supplemented with Glutamax, penicillin and streptomycin, at density of 1×10^6 cells/well in a 96-well flat-bottom plate and were stimulated with 1 μg/mL anti-CD3 antibody (UCHT1) and 0.1 μg/mL anti-CD28 antibody (CD28.2) in the presence of:
Supernatants from these cells were collected at 24 hours post-stimulation and the levels of IFN-γ, IL-2 and TNF were determined by ELISA assays.
Human PBMCs, obtained from two individual human volunteer donors (donor 2 and donor 3), were dispensed at density of 1×10^6 cells/well in a 96-well flat-bottom plate and were stimulated with 1 μg/mL anti-CD3 antibody (UCHT1) and 0.1 μg/mL anti-CD28 antibody (CD28.2) in the presence of:
Human PBMCs, obtained from twelve individual human volunteer donors were dispensed at density of 1×10^6 cells/well in a 96-well flat-bottom plate and were stimulated in triplicate with 1 μg/mL anti-CD3 antibody (UCHT1) and 0.1 μg/mL anti-CD28 antibody (CD28.2) in the presence of:
A total of 44 experiments using PBMC from 12 healthy donors were tested (9 donors for GM-CSF), with each donor tested in 1 to 8 separate experiments, depending on the donor (1 to 4 experiments each for GM-CSF). […] Cytokines were detected in supernatants with the Legendplex (Biolegend) or the MSB (MesoScale) platforms. […] One-way ANOVA with Tukey's post-hoc multiple comparisons correction was performed to identify significant differences (FC, mean fold change; ****, p<0.0001, ***, p<0.001; **, p<0.01; *, p<0.05, ns, not significant).
Human PBMC (1×10^6 cells/well in a 96-well flat-bottom plate) obtained from donor 3 and donor 6 were stimulated with 1 μg/mL anti-CD3 antibody (UCHT1) and 0.1 μg/mL anti-CD28 antibody (CD28.2) in the presence of:
Supernatants from these cells were collected at 24 hours post-stimulation and the levels of IFN-γ, IL-2, and TNF were determined with the MSD platform (MesoScale Discovery).
Human PBMC (1×10^6 cells/well in a 96-well flat-bottom plate) obtained from donor 7 were stimulated with 1 μg/mL […] (UCHT1) and 0.1 μg/mL anti-CD28 antibody (CD28.2) in the presence of:
Supernatants from these cells were collected at 24 hours post-stimulation and the levels of IFN-γ, IL-2, TNF and GM-CSF were determined with the MSD platform (MesoScale Discovery).
Supernatants from these cells were collected at 24 hours post-stimulation and the levels of IFN-γ, IL-2 and TNF were determined with the MSD platform (MesoScale Discovery).

Chain of GPR174 (Q9BXC1 whole entry): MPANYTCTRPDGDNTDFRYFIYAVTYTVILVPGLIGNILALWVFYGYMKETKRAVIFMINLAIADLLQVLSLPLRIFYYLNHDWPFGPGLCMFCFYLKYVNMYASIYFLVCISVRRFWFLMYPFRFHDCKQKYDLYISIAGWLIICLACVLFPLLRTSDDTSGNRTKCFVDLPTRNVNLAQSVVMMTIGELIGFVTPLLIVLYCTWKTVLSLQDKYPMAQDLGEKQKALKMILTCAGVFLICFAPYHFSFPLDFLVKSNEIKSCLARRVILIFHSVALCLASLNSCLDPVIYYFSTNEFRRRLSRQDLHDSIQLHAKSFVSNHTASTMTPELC

Molecule	Fold decrease in Gs signaling activity [1] [fold]	EC50 [1]	further results
O=C1CCCC2=C1C(c1ccc(Oc3ccccc3)cc1)C1=C(N2)c2ccccc2C1=O (stereo not shown) [compound 47]	7.1	1000 nM	
O=C1CCCC2=C1C(c1ccc(OC3CCCC3)cc1)C1=C(N2)c2ccccc2C1=O (stereo not shown) [compound 45]	7.6	1000 nM	
CC1CCCCN1c1cc(N2CCN(C(=O)C(C)(C)C)CC2)c([N+](=O)[O-])cc1F (stereo not shown) [compound 17]	2.0	3000 nM	
CCc1ccc(C2C3=C(CCCC3=O)NC3=C2C(=O)c2ccccc23)cc1 (stereo not shown) [compound 27]	6.2	800 nM and 500 nM	
Cc1ccc(S(=O)(=O)N2CCN(c3cc(N4CCCCC4)c(F)cc3[N+](=O)[O-])CC2)cc1 [compound 15]	2.6	1700 nM	
O=C1CCCC2=C1C(c1ccc(Cl)cc1)C1=C(N2)c2ccccc2C1=O (stereo not shown) [compound 39]	7.8	3000 nM	
CCC(=O)N1CCN(c2cc(N3CCC(C)CC3)c(F)cc2[N+](=O)[O-])CC1 [compound 8]	3.3	700 nM and 400 nM	
CC(C)c1ccc(C2C3=C(CCCC3=O)NC3=C2C(=O)c2ccccc23)cc1 (stereo not shown) [compound 29]	5.3	1200 nM	
CCOc1cccc(C2C3=C(CCCC3=O)NC3=C2C(=O)c2ccccc23)c1 (stereo not shown) [compound 51]	1.7	1600 nM	
O=C1CCCC2=C1C(c1ccc(N3CCCC3=O)cc1)C1=C(N2)c2ccccc2C1=O (stereo not shown) [compound 43]	5.1	5200 nM	
O=C1CCCC2=C1C(c1ccc(OC(F)(F)F)cc1)C1=C(N2)c2ccccc2C1=O (stereo not shown) [compound 48]	5	1200 nM	
C=CCOc1ccc(C2C3=C(CCCC3=O)NC3=C2C(=O)c2ccccc23)cc1 (stereo not shown) [compound 50]	10.1	1200 nM	
CC(C)Oc1ccc(C2C3=C(CCCC3=O)NC3=C2C(=O)c2ccccc23)cc1 (stereo not shown) [compound 49]	14.3	600 nM	
O=C1CCCC2=C1C(c1ccc(F)cc1)C1=C(N2)c2ccccc2C1=O (stereo not shown) [compound 35]	2.8	4300 nM	
CCCCCCOc1ccc(C2C3=C(CCCC3=O)NC3=C2C(=O)c2ccccc23)cc1 (stereo not shown) [compound 52]	3.1	500 nM	
CCOc1ccc(C2C3=C(CCCC3=O)NC3=C2C(=O)c2ccccc23)cc1OCC (stereo not shown) [compound 30]	2.2	3800 nM	
CCOc1ccc(C2C3=C(CCCC3=O)NC3=C2C(=O)c2ccccc23)cn1 (stereo not shown) [compound 55]	7	600 nM	
O=C1CCCC2=C1C(c1ccccc1)C1=C(N2)c2ccccc2C1=O (stereo not shown) [compound 25]	4.2	4600 nM	

Molecule	Fold decrease in Gs signaling activity [1] [fold]	EC50 [1]	further results
O=[N+]([O-])c1cc(F)c(N2CCCCCC2)cc1N1CCN(S(=O)(=O)c2ccccc2)CC1 [compound 53]	3.4	1800 nM	
CC(C)(C)Oc1ccc(C2C3=C(CCCC3=O)NC3=C2C(=O)c2ccccc23)cc1 (stereo not shown) [compound 44]	4.7	1300 nM	
CCOC(=O)N1CCN(c2cc(N3CCCCC3C)c(F)cc2[N+](=O)[O-])CC1 (stereo not shown) [compound 18]	1.9	1000 nM	
O=C1CCCC2=C1C(c1ccc(OC(F)F)cc1)C1=C(N2)c2ccccc2C1=O (stereo not shown) [compound 46]	8.1	1200 nM	
COc1cc(C2C3=C(CCCC3=O)NC3=C2C(=O)c2ccccc23)ccc1O (stereo not shown) [compound 26]	1.7	3600 nM	
C=C(C)COc1ccc(NC(=O)Nc2ccccc2)cc1 [compound 56]	3	500 nM	Human GPR174 CRE Activity: nature of the compound (IA, antagonist, NM) [1]: inverse agonist
Cc1nnc(-c2ccc(C3C4=C(CCCC4=O)NC4=C3C(=O)c3ccccc34)cc2)o1 (stereo not shown) [compound 34]	8.4	2800 nM	
CS(=O)(=O)c1ccc(C2C3=C(CCCC3=O)NC3=C2C(=O)c2ccccc23)cc1 (stereo not shown) [compound 40]	8.8	3300 nM	
Cc1cc(C(=O)N/N=C/c2cc(Br)ccc2O)c(C)o1 [compound 58]			Human GPR174 CRE Activity: nature of the compound (IA, antagonist, NM) [1]: GPR174 antagonists or allosteric modulators; also recorded: Antagonist or allosteric modulator
O=C1CCCC2=C1C(c1ccc(-c3ccccc3)cc1)C1=C(N2)c2ccccc2C1=O (stereo not shown) [compound 32]	3.9	2500 nM	
COc1cccc(C2C3=C(CCCC3=O)NC3=C2C(=O)c2ccccc23)c1 (stereo not shown) [compound 28]	1.9	3600 nM	
O=C1CCCC2=C1C(c1cccnc1)C1=C(N2)c2ccccc2C1=O (stereo not shown) [compound 37]	2.8	5400 nM	
Cc1ccc(S(=O)(=O)N2CCN(c3cc(N4CCC(C)CC4)c(F)cc3[N+](=O)[O-])CC2)cc1 [compound 14]	3	1100 nM	
CCc1ccc(C2C3=C(CCCC3=O)NC3=C2C(=O)c2ccccc23)cn1 (stereo not shown) [compound 54]	7	2000 nM	
O=C(N/N=C/c1cc(Cl)ccc1O)c1ccncc1 [compound 57]			Human GPR174 CRE Activity: nature of the compound (IA, antagonist, NM) [1]: GPR174 antagonists or allosteric modulators; also recorded: Antagonist or allosteric modulator
CCCOc1ccc(C2C3=C(CCCC3=O)NC3=C2C(=O)c2ccccc23)cc1 (stereo not shown) [compound 41]	13.7	1000 nM	
B1			IFN-γ, MRS/Veh: ratio in the presence vs. the absence of MRS-1754 ([2]; donor 3): 0.7*; IL-2, MRS/Veh: ratio in the presence vs. the absence of MRS-1754 ([2]; donor 3): 0.9; TNF, MRS/Veh: ratio in the presence vs. the absence of MRS-1754 ([2]; donor 3): 0.9; IFN-γ, ratio relative to vehicle control (Veh column) ([2]; donor 3, no MRS): 1.7* fold; IL-2, ratio relative to vehicle control (Veh column) ([2]; donor 3, no MRS): 2.2* fold; TNF, ratio relative to vehicle control (Veh column) ([2]; donor 3, no MRS): 2.2* fold; IFN-γ, ratio relative to vehicle control (MRS) ([2]; donor 3): 1.1 fold; IL-2, ratio relative to vehicle control (MRS column) ([2]; donor 3): 1.9* fold; TNF, ratio relative to vehicle control (MRS column) ([2]; donor 3): 1.9* fold; IFN-γ, MRS/Veh: ratio in the presence vs. the absence of MRS-1754 ([2]; donor 6): 1.3; IL-2, MRS/Veh: ratio in the presence vs. the absence of MRS-1754 ([2]; donor 6): 1.0; TNF, MRS/Veh: ratio in the presence vs. the absence of MRS-1754 ([2]; donor 6): 1.2*; IFN-γ, ratio relative to vehicle control (Veh column) ([2]; donor 6, no MRS): 1.2 fold; IL-2, ratio relative to vehicle control (Veh column) ([2]; donor 6, no MRS): 1.3* fold; TNF, ratio relative to vehicle control (Veh column) ([2]; donor 6, no MRS): 1.2* fold; IFN-γ, ratio relative to vehicle control (MRS) ([2]; donor 6): 1.5* fold; IL-2, ratio relative to vehicle control (MRS column) ([2]; donor 6): 1.3* fold; TNF, ratio relative to vehicle control (MRS column) ([2]; donor 6): 1.4* fold
